Test results from ChEMBL document CHEMBL1201862, “PubChem BioAssay data set” (2004).
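Grown in 96-well plates, cells were treated for 48 hours with each compound at five concentrations. Insufficient inhibition: endpoint recorded as highest concentration tested. GI50 is the concentration that inhibits growth by half.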 Calls of active or inactive are those of the source. No stated cut-off is given here; in the data, active = GI50 up to about 1.1 µM and inactive = higher.

How the values were obtained:
Test in all cases: DTP human tumour cell line panel, 48 h
[1] = tested on: A549
[2] = tested on: MDA-MB-231
[3] = tested on: MOLT-4
[4] = tested on: TK-10
[5] = tested on: IGROV-1
[6] = tested on: RPMI-8226
[7] = tested on: MDA-N
[8] = tested on: HCT-15
[9] = tested on: HCC 2998
[10] = tested on: EKVX
[11] = tested on: ACHN
[12] = tested on: NCI-H460
[13] = tested on: HOP-92
[14] = tested on: MCF7
[15] = tested on: 786-0
[16] = tested on: LOX IMVI
[17] = tested on: Malme-3M
[18] = tested on: KM12
[19] = tested on: HOP-62
[20] = tested on: OVCAR-4
[21] = tested on: K562
[22] = tested on: M14
[23] = tested on: SK-MEL-2
[24] = tested on: NCI/ADR-RES
[25] = tested on: T47D
[26] = tested on: OVCAR-8
[27] = tested on: UACC-62
[28] = tested on: MDA-MB-435
[29] = tested on: Hs-578T
[30] = tested on: OVCAR-5
[31] = tested on: SF-268
[32] = tested on: SN12C
[33] = tested on: SK-MEL-5
[34] = tested on: A498
[35] = tested on: HL-60
[36] = tested on: HCT-116
[37] = tested on: CAKI-1
[38] = tested on: SNB-75
[39] = tested on: UACC-257
[40] = tested on: SK-OV-3
[41] = tested on: NCI-H23
[42] = tested on: OVCAR-3
[43] = tested on: COLO 205
[44] = tested on: UO-31
[45] = tested on: SK-MEL-28
[46] = tested on: RXF 393
[47] = tested on: CCRF-CEM
[48] = tested on: DU-145
[49] = tested on: BT-549
[50] = tested on: PC-3
[51] = tested on: SR
[52] = tested on: SW-620
[53] = tested on: SNB-19
[54] = tested on: HT-29
[55] = tested on: NCI-H226
[56] = tested on: SF-295
[57] = tested on: NCI-H522
[58] = tested on: U-251
[59] = tested on: SF-539

COc1ccc(-c2cn3c(n2)sc2cc(C)ccc23)cc1
GI50 [1]: 24.4 µM (inactive)
GI50 [2]: 15.5 µM (inactive)
GI50 [3]: 17.5 µM (inactive)
GI50 [4]: 22.1 µM (inactive)
GI50 [5]: 7.19 µM (inactive)
GI50 [6]: 3.93 µM (inactive)
GI50 [7]: 5.08 µM (inactive)
GI50 [8]: 38.5 µM
GI50 [9]: 12.5 µM (inactive)
GI50 [10]: 4.73 µM (inactive)
GI50 [11]: 28.4 µM (inactive)
GI50 [12]: 20.7 µM (inactive)
GI50 [13]: 2.86 µM (inactive)
GI50 [14]: 4.85 µM (inactive)
GI50 [15]: 18.3 µM (inactive)
GI50 [16]: 17.5 µM (inactive)
GI50 [17]: 37.8 µM (inactive)
GI50 [18]: 5.05 µM (inactive)
GI50 [19]: 20.2 µM (inactive)
GI50 [20]: 10.9 µM (inactive)
GI50 [21]: 3.64 µM (inactive)
GI50 [22]: 26.1 µM (inactive)
GI50 [23]: 14.3 µM (inactive)
GI50 [24]: > 100 µM (inactive)
GI50 [25]: 3.33 µM (inactive)
GI50 [26]: 8.17 µM (inactive)
GI50 [27]: 12.3 µM (inactive)
GI50 [28]: 5.28 µM (inactive)
GI50 [29]: 18.2 µM (inactive)
GI50 [30]: 43.2 µM (inactive)
GI50 [31]: 22.8 µM (inactive)
GI50 [32]: 23.7 µM (inactive)
GI50 [33]: 3.65 µM (inactive)
GI50 [34]: 21.3 µM (inactive)
GI50 [35]: 3.45 µM (inactive)
GI50 [36]: 13.2 µM (inactive)
GI50 [37]: 57.5 µM (inactive)
GI50 [38]: 17.4 µM (inactive)
GI50 [39]: 3.9 µM (inactive)
GI50 [40]: 22.1 µM (inactive)
GI50 [41]: 9.29 µM (inactive)
GI50 [42]: 7.14 µM (inactive)
GI50 [43]: 5.51 µM (inactive)
GI50 [44]: 42.3 µM (inactive)
GI50 [45]: 38.3 µM (inactive)
GI50 [46]: 16.6 µM (inactive)
GI50 [47]: 19.8 µM (inactive)
GI50 [48]: 23.2 µM (inactive)
GI50 [49]: 12.1 µM (inactive)
GI50 [50]: 14.8 µM (inactive)
GI50 [51]: 4.86 µM (inactive)
GI50 [52]: 25.8 µM (inactive)
GI50 [53]: 12.5 µM (inactive)
GI50 [54]: 5.96 µM (inactive)
GI50 [55]: 15.2 µM (inactive)
GI50 [56]: 16.8 µM (inactive)
GI50 [57]: 5.55 µM (inactive)
GI50 [58]: 4.13 µM (inactive)
GI50 [59]: 13.6 µM (inactive)

Cn1c2ccccc2c2ccc3c(c21)C(=O)c1ccc2c4ccccc4n(C)c2c1C3=O
GI50 [1]: > 100 µM (inactive)
GI50 [2]: > 100 µM (inactive)
GI50 [3]: > 100 µM (inactive)
GI50 [4]: > 100 µM (inactive)
GI50 [5]: > 100 µM (inactive)
GI50 [6]: > 100 µM (inactive)
GI50 [7]: > 100 µM (inactive)
GI50 [8]: > 100 µM
GI50 [9]: > 100 µM (inactive)
GI50 [10]: > 100 µM (inactive)
GI50 [11]: > 100 µM (inactive)
GI50 [12]: > 100 µM (inactive)
GI50 [13]: > 100 µM (inactive)
GI50 [14]: 97.1 µM (inactive)
GI50 [15]: 99.1 µM (inactive)
GI50 [16]: > 100 µM (inactive)
GI50 [17]: 87.5 µM (inactive)
GI50 [18]: > 100 µM (inactive)
GI50 [19]: > 100 µM (inactive)
GI50 [20]: > 65.5 µM (inactive)
GI50 [21]: > 100 µM (inactive)
GI50 [22]: > 100 µM (inactive)
GI50 [23]: > 100 µM (inactive)
GI50 [24]: > 100 µM (inactive)
GI50 [25]: > 100 µM (inactive)
GI50 [26]: > 100 µM (inactive)
GI50 [27]: > 100 µM (inactive)
GI50 [28]: > 100 µM (inactive)
GI50 [29]: > 100 µM (inactive)
GI50 [30]: > 100 µM (inactive)
GI50 [31]: > 100 µM (inactive)
GI50 [32]: > 100 µM (inactive)
GI50 [33]: > 100 µM (inactive)
GI50 [34]: > 100 µM (inactive)
GI50 [35]: > 100 µM (inactive)
GI50 [36]: > 96.2 µM (inactive)
GI50 [37]: > 100 µM (inactive)
GI50 [38]: > 100 µM (inactive)
GI50 [39]: > 100 µM (inactive)
GI50 [40]: > 100 µM (inactive)
GI50 [41]: > 100 µM (inactive)
GI50 [42]: > 65 µM (inactive)
GI50 [43]: > 100 µM (inactive)
GI50 [44]: > 100 µM (inactive)
GI50 [45]: > 100 µM (inactive)
GI50 [46]: > 100 µM (inactive)
GI50 [47]: > 100 µM (inactive)
GI50 [48]: > 100 µM (inactive)
GI50 [49]: > 100 µM (inactive)
GI50 [50]: > 100 µM (inactive)
GI50 [51]: > 100 µM (inactive)
GI50 [52]: > 100 µM (inactive)
GI50 [53]: > 100 µM (inactive)
GI50 [54]: > 100 µM (inactive)
GI50 [55]: > 100 µM (inactive)
GI50 [56]: > 100 µM (inactive)
GI50 [57]: > 100 µM (inactive)
GI50 [58]: > 100 µM (inactive)
GI50 [59]: > 100 µM (inactive)
